{"source": "patent US20190352602A1", "about": "“Methods and Compositions for Producing Germ Cells from Bone Marrow Derived Germline Stem Cells” (The General Hospital Corporation, priority 2004, published 2019)", "origin": "cited, not measured here", "tested_on": "irradiated testicular tissue", "settings": "irradiated testicular tissue treated with S1P vs untreated tissues", "data": [{"compound": "CCCCCCCCCCCCC/C=C/[C@@H](O)[C@@H](N)COP(=O)(O)O", "note": "[S1P, Sphingosine-1-phosphate]", "values": [{"measurement": "numbers of primary spermatocytes and spermatogonia", "result": "higher than untreated tissues"}]}]}
